According to patent US12655116B2, “Substituted isophthalic acid diamides” (Bayer Aktiengesellschaft, priority 2020, dated 2026):

Legend:
MATIN [1] = test: Pre-emergence herbicidal action against MATIN; format: in vivo, Matricaria inodora
Method in brief: (§1)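 Pre-emergence soil-surface spray of formulated compound (WP or EC; 600 to 800 l/ha; 0.2% wetting agent) over seeds sown in sandy loam. After 3 weeks under greenhouse conditions, damage is estimated visually in percent against untreated plants.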

MATIN [2] = test: Post-emergence herbicidal action against MATIN; format: in vivo, Matricaria inodora
Method in brief: (§2)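 Greenhouse plants in sandy loam were sprayed at the one-leaf stage, 2 to 3 weeks after sowing, with WP or EC formulations as aqueous suspension or emulsion (600 to 800 l/ha water, 0.2% wetting agent). Visual damage was scored about 3 weeks later versus untreated controls, 0% = like control, 100% = dead.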

STEME [3] = test: Post-emergence herbicidal action against STEME; format: in vivo, Stellaria media
Method in brief: as §2

ABUTH [4] = test: Pre-emergence herbicidal action against ABUTH; format: in vivo, Abutilon theophrasti; conditions: for Pre-emergence action against ABUTH (herbicidal activity): 80 g/ha, scored visually after 3 weeks vs untreated controls (100% = plants have died, 0% = like control plants); for Pre-emergence action against ABUTH (herbicidal activity in percent): dosage 20 g/ha, scored visually after 3 weeks vs untreated controls, 100% = plants have died, 0% = like control plants
Method in brief: as §1

ECHCG [5] = test: Pre-emergence herbicidal action against ECHCG; format: in vivo, Echinochloa crus-galli
Method in brief: as §1

HORMU [6] = test: Pre-emergence herbicidal action against HORMU; format: in vivo, Hordeum murinum; conditions: 80 g/ha, pre-emergence
Method in brief: as §1

VIOTR [7] = test: Pre-emergence herbicidal action against VIOTR; format: in vivo, Viola tricolor
Method in brief: as §1

DIGSA [8] = test: Post-emergence herbicidal action against DIGSA; format: in vivo, Digitaria sanguinalis
Method in brief: as §2

STEME [9] = test: Pre-emergence herbicidal action against STEME; format: in vivo, Stellaria media
Method in brief: as §1

AVEFA [10] = test: Post-emergence herbicidal action against AVEFA; format: in vivo, Avena fatua; conditions: 20 g/ha, visual assessment about 3 weeks after treatment, 100% = plants have died, 0% = like control plants
Method in brief: as §2

SETVI [11] = test: Pre-emergence herbicidal action against SETVI; format: in vivo, Setaria viridis; conditions: dosage 80 g/ha
Method in brief: as §1

ALOMY [12] = test: Pre-emergence herbicidal action against ALOMY; format: in vivo, Alopecurus myosuroides; conditions: 80 g/ha, pre-emergence, scored visually after 3 weeks vs untreated controls (100% = plants have died, 0% = like control plants)
Method in brief: as §1

AMARE [13] = test: Post-emergence herbicidal action against AMARE; format: in vivo, Amaranthus retroflexus; conditions: 20 g/ha, visual assessment about 3 weeks after treatment, 100% = plants have died, 0% = like control plants
Method in brief: as §2

PHBPU [14] = test: Pre-emergence herbicidal action against PHBPU; format: in vivo, Pharbitis purpurea; conditions: dosage 80 g/ha
Method in brief: as §1

VIOTR [15] = test: Post-emergence herbicidal action against VIOTR; format: in vivo, Viola tricolor
Method in brief: as §2

VERPE [16] = test: Pre-emergence herbicidal action against VERPE; format: in vivo, Veronica persica; conditions: dosage 80 g/ha
Method in brief: as §1

HORMU [17] = test: Post-emergence herbicidal action against HORMU; format: in vivo, Hordeum murinum; conditions: dosage 20 g/ha
Protocol: Seeds of monocotyledonous and dicotyledonous weed and crop plants are laid out in sandy loam soil in wood-fiber pots, covered with soil and cultivated in a greenhouse under good growth conditions. 2 to 3 weeks after sowing, the test plants are treated at the one-leaf stage. The compounds of the invention, formulated in the form of wettable powders (WP) or as emulsion concentrates (EC), are then sprayed onto the green parts of the plants in the form of an aqueous suspension or emulsion at a water application rate equivalent to 600 to 800 l/ha, with addition of 0.2% wetting agent. After the test plants have been left to stand in the greenhouse under optimal growth conditions for about 3 weeks, the action of the preparations is assessed visually in comparison to untreated controls (herbicidal action in percent (%): 100% activity=the plants have died, 0% activity=like control plants). […] The tables below illustrate, in an illustrative manner, the post-emergence herbicidal action of the compounds of the invention, the herbicidal activity being stated in percent.

AMARE [18] = test: Pre-emergence herbicidal action against AMARE; format: in vivo, Amaranthus retroflexus
Method in brief: as §1

SETVI [19] = test: Post-emergence herbicidal action against SETVI; format: in vivo, Setaria viridis
Method in brief: as §2

LOLRI = test: Pre-emergence herbicidal action against LOLRI; format: in vivo, Lolium rigidum; conditions: 80 g/ha
Method in brief: as §1

DIGSA [20] = test: Pre-emergence herbicidal action against DIGSA; format: in vivo, Digitaria sanguinalis
Method in brief: as §1

ALOMY [21] = test: Post-emergence herbicidal action against ALOMY; format: in vivo, Alopecurus myosuroides; conditions: dosage 20 g/ha, visual assessment about 3 weeks after treatment vs untreated controls
Method in brief: as §2

ABUTH [22] = test: Post-emergence herbicidal action against ABUTH; format: in vivo, Abutilon theophrasti; conditions: visual assessment about 3 weeks after treatment vs untreated controls
Method in brief: as §2

AVEFA [23] = test: Pre-emergence herbicidal action against AVEFA; format: in vivo, Avena fatua; conditions: 80 g/ha, pre-emergence
Method in brief: as §1

PHBPU [24] = test: Post-emergence herbicidal action against PHBPU; format: in vivo, Pharbitis purpurea
Method in brief: as §2

ECHCG [25] = test: Post-emergence herbicidal action against ECHCG; format: in vivo, Echinochloa crus-galli
Method in brief: as §2

VERPE [26] = test: Post-emergence herbicidal action against VERPE; format: in vivo, Veronica persica
Method in brief: as §2

POLCO = test: Pre-emergence herbicidal action against POLCO; format: in vivo, Polygonum convolvulus; conditions: dosage 80 g/ha
Method in brief: as §1

[27] = 20 g/ha, scored visually after 3 weeks vs untreated controls, 100% = plants have died, 0% = like control plants
[28] = 80 g/ha, scored visually after 3 weeks vs untreated controls (100% = plants have died, 0% = like control plants)

CCn1nnnc1NC(=O)c1ccc(C(F)F)c(C(=O)NC)c1SC [Example 2-87]
90%: Pre-emergence action against MATIN in % (MATIN [1]; dosage 20 g/ha) | Pre-emergence action against MATIN in % (MATIN [1]; dosage 80 g/ha) | Post-emergence action against MATIN in % (MATIN [2]; dosage 20 g/ha) | Post-emergence action against STEME in % (STEME [3]; 20 g/ha) | Pre-emergence action against VIOTR in % (VIOTR [7]; dosage 20 g/ha) | Pre-emergence action against VIOTR in % (VIOTR [7]; dosage 80 g/ha) | Post-emergence action against DIGSA in % (DIGSA [8]; 5 g/ha) | Post-emergence action against DIGSA (DIGSA [8]; 20 g/ha) | Post-emergence action at 20 g/ha against AMARE in % (AMARE [13]) | Pre-emergence action against VERPE in % (VERPE [16]) | Post-emergence action against ABUTH in % (ABUTH [22]; dosage 5 g/ha) | Post-emergence action against ABUTH in % (ABUTH [22]; dosage 20 g/ha) | Pre-emergence action against AVEFA in % (AVEFA [23])
100%: Pre-emergence action against ABUTH (herbicidal activity) (ABUTH [4]) | Pre-emergence action against ABUTH (herbicidal activity in percent) (ABUTH [4]) | Pre-emergence action against ECHCG in % (ECHCG [5]; 80 g/ha) | Pre-emergence action against STEME in % (STEME [9]; dosage 20 g/ha) | Pre-emergence action against STEME in % (STEME [9]; dosage 80 g/ha) | Pre-emergence action against SETVI in % (SETVI [11]) | Post-emergence action against VIOTR in % (VIOTR [15]; 20 g/ha) | Pre-emergence action against AMARE in % (AMARE [18]; [27]) | Pre-emergence action against AMARE in % (AMARE [18]; [28]) | Pre-emergence action against DIGSA in % (DIGSA [20]; dosage 20 g/ha) | Pre-emergence action against DIGSA in % (DIGSA [20]; dosage 80 g/ha)
80%: Post-emergence action against MATIN in % (MATIN [2]; dosage 5 g/ha) | Post-emergence action against STEME in % (STEME [3]; dosage 5 g/ha) | Pre-emergence action against ECHCG in % (ECHCG [5]; 20 g/ha) | Pre-emergence action against HORMU in % (HORMU [6]) | Post-emergence action at 20 g/ha against AVEFA in % (AVEFA [10]) | Pre-emergence action against ALOMY (herbicidal activity) (ALOMY [12]) | Pre-emergence action against PHBPU in % (PHBPU [14]) | Post-emergence action against HORMU in % (HORMU [17]) | Post-emergence action against SETVI in % (SETVI [19]; dosage 5 g/ha) | Post-emergence action against SETVI in % (SETVI [19]; dosage 20 g/ha) | Pre-emergence action against LOLRI in % (LOLRI) | Post-emergence action against ALOMY in % (ALOMY [21]) | Post-emergence action against PHBPU in % (PHBPU [24]; dosage 5 g/ha) | Post-emergence action against PHBPU in % (PHBPU [24]; dosage 20 g/ha) | Post-emergence action against ECHCG in % (ECHCG [25]; dosage 5 g/ha) | Post-emergence action against ECHCG in % (ECHCG [25]; dosage 20 g/ha) | Post-emergence action against VERPE in % (VERPE [26]; 20 g/ha)

CCn1nnnc1NC(=O)c1ccc(C(F)F)c(C(=O)NC2CC2)c1C [Example 2-46]
100%: Pre-emergence action against MATIN in % (MATIN [1]; dosage 80 g/ha) | Pre-emergence action against ABUTH (herbicidal activity) (ABUTH [4]) | Pre-emergence action against ABUTH (herbicidal activity in percent) (ABUTH [4]) | Pre-emergence action against VIOTR in % (VIOTR [7]; dosage 20 g/ha) | Pre-emergence action against VIOTR in % (VIOTR [7]; dosage 80 g/ha) | Pre-emergence action against STEME in % (STEME [9]; dosage 80 g/ha) | Pre-emergence action against SETVI in % (SETVI [11]) | Pre-emergence action against ALOMY (herbicidal activity) (ALOMY [12]) | Post-emergence action at 20 g/ha against AMARE in % (AMARE [13]) | Pre-emergence action against AMARE in % (AMARE [18]; [27]) | Pre-emergence action against AMARE in % (AMARE [18]; [28]) | Pre-emergence action against DIGSA in % (DIGSA [20]; dosage 20 g/ha) | Pre-emergence action against DIGSA in % (DIGSA [20]; dosage 80 g/ha) | Pre-emergence action against AVEFA in % (AVEFA [23])
80%: Post-emergence action against MATIN in % (MATIN [2]; dosage 20 g/ha) | Post-emergence action against STEME in % (STEME [3]; 20 g/ha) | Post-emergence action against STEME in % (STEME [3]; dosage 5 g/ha) | Post-emergence action against VIOTR in % (VIOTR [15]; 5 g/ha) | Post-emergence action against VIOTR in % (VIOTR [15]; 20 g/ha) | Post-emergence action against HORMU in % (HORMU [17]) | Post-emergence action against ALOMY in % (ALOMY [21]) | Post-emergence action against ABUTH in % (ABUTH [22]; dosage 5 g/ha) | Post-emergence action against ABUTH in % (ABUTH [22]; dosage 20 g/ha) | Post-emergence action against PHBPU in % (PHBPU [24]; dosage 20 g/ha) | Post-emergence action against ECHCG in % (ECHCG [25]; dosage 20 g/ha) | Post-emergence action against VERPE in % (VERPE [26]; 5 g/ha) | Post-emergence action against VERPE in % (VERPE [26]; 20 g/ha)
90%: Pre-emergence action against MATIN in % (MATIN [1]; dosage 20 g/ha) | Pre-emergence action against ECHCG in % (ECHCG [5]; 80 g/ha) | Pre-emergence action against HORMU in % (HORMU [6]) | Pre-emergence action against POLCO in % (POLCO) | Pre-emergence action against STEME in % (STEME [9]; dosage 20 g/ha) | Pre-emergence action against PHBPU in % (PHBPU [14]) | Pre-emergence action against VERPE in % (VERPE [16]) | Pre-emergence action against LOLRI in % (LOLRI)
